Assays:
[1] = system: Arabidopsis, tomato, and wheat roots; assay: LC-MS comparative metabolomics of ascr #18-treated plant roots; type: in vivo
Procedure: Plant tissues were immediately frozen in liquid nitrogen and ground to a fine powder and extracted with 350 μL mixture of water/methanol/chloroform (1:2:1) for 12 hours at 4° C., with shaking at 220 rpm. The extracts were dried in vacuo, resuspended in 100-200 μL of 80% methanol and analyzed by LC/MS. For root tissues, seedlings were extensively washed three times with the excess amount of distilled water and dried on filter paper. The root tissues from 40 seedlings were pooled in one tube and then similarly extracted. Mixed stage C. elegans culture extract was prepared as described (Panda, et al. (2017) Angew Chem. Int. Ed. Engl. 56(17): 4729-4733).
High resolution LC-MS analysis was performed on a Dionex™ 3000 UPLC system coupled with a Thermo Q Exactive™ high-resolution mass spectrometer as described (Artyukhin, et al. (2018) J. Am. Chem. Soc. 140 (8): 2841-2852; Panda, et al. (2017) Angew Chem. Int. Ed. Engl. 56 (17): 4729-4733). Metabolite extracts were separated using water-acetonitrile gradient using Agilent ZORBOX Eclispse XDB-C18 rapid resolution column (2.1 mm×150 mm, particle size 1.8-micron) maintained at 40° C. Solvent A: 0.1% formic acid in water; Solvent B: 0.1% formic acid in acetonitrile. […] Ascarosides were detected in negative ionization mode as [M-H]— and MS/MS spectra and retention times confirmed by comparison with known standards. […]

[2] = system: Arabidopsis root exudates; assay: LC-MS of root exudates of ascr #18-treated Arabidopsis seedlings; type: in vivo, Arabidopsis thaliana
Procedure: Data are average±SEM (n=6), n.d.=not detected. […] Exudates from approximately 40 seedlings were collected in distilled water and pooled. Abundances of ascarosides are shown as the peak area, as measured by LC-MS. Data are average±SEM (n=3); n.d.=not detected. FIGS. 5C and 5D show the relative abundances of ascarosides in root exudates of eight-day old tomato seedlings treated with 10 nM (FIG. 5C) or 1000 nM (FIG. 5D) ascr #18 for 6 hours. Exudates from approximately 10 seedlings were collected in distilled water and pooled. Abundances of ascarosides are shown as the peak area, as measured by LC-MS. Data are average±SEM (n=3); n.d.=not detected. FIG. 5E provides the relative abundances of ascr #10, ascr #1, and ascr #9 in the growth media of eight-day old tomato seedlings supplemented with 1 μM ascr #18. Ten-gram media samples were collected at different time points over a 48 hour period for metabolome extraction. Abundances of ascarosides are shown as the peak area, as measured by LC-MS.
To test this possibility, root-secreted metabolites of ascr #18- and mock-treated Arabidopsis were compared (FIG. 5A). For this experiment, 10-day old Arabidopsis seedlings were treated in growth media supplemented with ascr #18 for 6 hours prior to collection of exudates from roots submerged in water. […] Analogous results were obtained in experiments with tomato roots (FIG. 5C, 5D).

Structure (SMILES)	uptake and metabolism of ascr #18 in roots ([1]; roots soaked 24 hours in ascr #18 solution, monocots and dicots)	ascarosides in root exudates of acx1acx5 ([2]; acx1acx5 seedlings, 10 nM ascr #18 for 6 hours)	abundance among ascr #18-derived metabolites in roots (LC-MS peak area) ([1]; all three plant species, ascr #18 root treatment 24 hours)	relative abundance among root-excreted ascr #18 metabolites ([2]; Arabidopsis)	secretion of ascr #18 metabolites via roots ([2]; ascr #18-treated wildtype, 6 hours treatment)
CC1O[C@@H](O[C@@H](C)CCCCCCCCC(=O)O)C(O)C[C@H]1O (stereo in doubt) [ascr #18, (10R)-(3′R,5′R-dihydroxy-6′S-methyl-(2H)-tetrahydropyran-2-yloxy)-undecanoic acid]	taken up and subsequently metabolized into ascarosides with shorter fatty-acid side chains	larger amounts of residual ascr #18 than in wildtype	–	–	–
C[C@H](CCC(=O)O)O[C@@H]1O[C@@H](C)[C@H](O)C[C@H]1O [ascr #9]	–	–	most abundant differential metabolite	most abundant	secretion
